Results as given in patent US20080255107A1, “Fungicidal Mixtures Comprising N-[2-(Haloalk(Enyl)Oxy)Phenyl]Carboxamides” (BASF SE, priority 2005, published 2008).

Legend:
Assay type in all cases: in vivo
[1] = test system: Botrytis cinerea; test: Activity against gray mold on bell pepper leaves caused by Botrytis cinerea, 1 day protective application; details: single active compound, assessed after 5 days
Method: The active compounds, separately or jointly, were prepared as a stock solution comprising 25 mg of active compound which was made up to 10 ml using a mixture of acetone and/or dimethyl sulfoxide and the emulsifier Uniperol® EL (wetting agent having an emulsifying and dispersing action based on ethoxylated alkylphenols) in a ratio by volume of solvent/emulsifier of 99:1. The mixture was then made up to 100 ml with water. This stock solution was diluted with the solvent/emulsifier/water mixture described to give the concentration of active compound stated below. Alternatively, the active compounds triticonazole and pyraclostrobin were used as a commercial finished formulation and diluted with water to the stated active compound concentrations. The visually determined percentages of infected leaf areas were converted into efficacies in % of the untreated control: The efficacy (E) is calculated as follows using Abbot's formula: E=(1−α/β)·100 α corresponds to the fungicidal infection of the treated plants in % and β corresponds to the fungicidal infection of the untreated (control) plants in % An efficacy of 0 means that the infection level of the treated plants corresponds to that of the untreated control plants; an efficacy of 100 means that the treated plants were not infected. The expected efficacies of active compound combinations were determined using Colby's formula (Colby, S. R. “Calculating synergistic and antagonistic responses of herbicide combinations”, Weeds, 15, pp. 20-22, 1967) and compared with the observed efficacies. E=x+y−x·y/100 Colby's formula • E expected efficacy, expressed in % of the untreated control, when using the mixture of the active compounds A and B at the concentrations a and b; • x efficacy, expressed in % of the untreated control, when using the active compound A at the concentration a; • y efficacy, expressed in % of the untreated control, when using the active compound B at the concentration b. […] After 5 days, the extent of the fungal infection on the leaves could be determined visually in %.

[2] = test system: Puccinia recondita; test: Curative activity against brown rust of wheat caused by Puccinia recondita; details: single active compound, wheat seedlings, sprayed 1 day after inoculation, read after 7 days, efficacy in % of untreated control (Abbot)
Method: The active compounds, separately or jointly, were prepared as a stock solution comprising 25 mg of active compound which was made up to 10 ml using a mixture of acetone and/or dimethyl sulfoxide and the emulsifier Uniperol® EL (wetting agent having an emulsifying and dispersing action based on ethoxylated alkylphenols) in a ratio by volume of solvent/emulsifier of 99:1. The mixture was then made up to 100 ml with water. This stock solution was diluted with the solvent/emulsifier/water mixture described to give the concentration of active compound stated below. Alternatively, the active compounds triticonazole and pyraclostrobin were used as a commercial finished formulation and diluted with water to the stated active compound concentrations. The visually determined percentages of infected leaf areas were converted into efficacies in % of the untreated control: The efficacy (E) is calculated as follows using Abbot's formula: E=(1−α/β)·100 α corresponds to the fungicidal infection of the treated plants in % and β corresponds to the fungicidal infection of the untreated (control) plants in % An efficacy of 0 means that the infection level of the treated plants corresponds to that of the untreated control plants; an efficacy of 100 means that the treated plants were not infected. The expected efficacies of active compound combinations were determined using Colby's formula (Colby, S. R. “Calculating synergistic and antagonistic responses of herbicide combinations”, Weeds, 15, pp. 20-22, 1967) and compared with the observed efficacies. E=x+y−x·y/100 Colby's formula • E expected efficacy, expressed in % of the untreated control, when using the mixture of the active compounds A and B at the concentrations a and b; • x efficacy, expressed in % of the untreated control, when using the active compound A at the concentration a; • y efficacy, expressed in % of the untreated control, when using the active compound B at the concentration b. […] The extent of the rust fungus development on the leaves was then determined.

[3] = test system: Alternaria solani; test: Activity against early blight of tomato caused by Alternaria solani (protective spray, potted tomato plants); details: single active compound, 16 mg/l; tomato leaves, sprayed 1 day before infection, read after 5 days; efficacy in % of untreated control (Abbot)
Method: The active compounds, separately or jointly, were prepared as a stock solution comprising 25 mg of active compound which was made up to 10 ml using a mixture of acetone and/or dimethyl sulfoxide and the emulsifier Uniperol® EL (wetting agent having an emulsifying and dispersing action based on ethoxylated alkylphenols) in a ratio by volume of solvent/emulsifier of 99:1. The mixture was then made up to 100 ml with water. This stock solution was diluted with the solvent/emulsifier/water mixture described to give the concentration of active compound stated below. […] The visually determined percentages of infected leaf areas were converted into efficacies in % of the untreated control: The efficacy (E) is calculated as follows using Abbot's formula: E=(1−α/β)·100 α corresponds to the fungicidal infection of the treated plants in % and β corresponds to the fungicidal infection of the untreated (control) plants in % An efficacy of 0 means that the infection level of the treated plants corresponds to that of the untreated control plants; an efficacy of 100 means that the treated plants were not infected. The expected efficacies of active compound combinations were determined using Colby's formula (Colby, S. R. “Calculating synergistic and antagonistic responses of herbicide combinations”, Weeds, 15, pp. 20-22, 1967) and compared with the observed efficacies. […]

SMILES | Observed activity (% infection) ([1]; 63 mg/l) [%] | Observed activity (% infection) ([2]; 63 mg/l) [%] | Observed activity (% infection) ([1]; 16 mg/l) [%] | Observed efficacy (% of untreated control, Abbott) [3] [%] | Observed activity (% infection) ([2]; 0.25 mg/l) [%]
COc1ccc(C(=CC(=O)N2CCOCC2)c2ccc(Cl)cc2)cc1OC [Dimethomorph, 3-(4-chlorophenyl)-3-(3,4-dimethoxyphenyl)-1-morpholin-4-yl-propenone] | 0 | 0 |  |  | 
COC(=O)N(OC)c1ccccc1COc1ccn(-c2ccc(Cl)cc2)n1 [pyraclostrobin] |  |  | 11 |  | 
COc1cc(C)c(C(=O)c2c(OC)ccc(Br)c2C)c(OC)c1OC [Metrafenone, 3′-bromo-2,3,4,6′-tetramethoxy-2′,6-dimethylbenzophenone] | 0 | 0 |  |  | 
CC1(C)CC/C(=C\c2ccc(Cl)cc2)C1(O)Cn1cncn1 (stereo not shown) [Triticonazole, (5E)-5-[(4-chlorophenyl)methylene]-2,2-dimethyl-1-(1H-1,2,4-triazol-1-ylmethyl)cyclopentanol] |  |  |  | 20 | 0
